Laboratory results reported in patent US20230100789A1, “Method for activating AMPK and the use of Adenine” (Energenesis Biomedical Co., Ltd., priority 2013, published 2023).

What was measured:
high-fat diet-fed mice = assay: Anti-diabetic effects in high-fat diet-fed mice (type 2 diabetes model); format: in vivo, C57BL/6J mice; conditions: IP 0.1 to 50 mg/kg twice a day for 6 days
Experimental: To further evaluate the effects of adenine on the modulation of plasma glucose level, the high-fat diet-fed mice were served as a type 2 diabetes animal model. C57BL/6J mice were maintained at 22° C. under a 12-h light/dark cycle and fed either a high fat diet (60% kcal % fat) or a normal diet ad libitum. Intraperitoneal injections of adenine (0.1 to 50 mg/kg) or vehicle were given to the high-fat diet-fed mice from the age of 24 weeks and glucose readings were measure at 1 and 3 hr. IP administration of adenine or vehicle only to the high-fat diet-fed mice continued twice a day for 6 days. On day 6, plasma was collected 1 hr after the last dosing for analyzing, evaluating, measuring plasma glucose and triglycerides.

3T3 cells = assay: Fibroblast proliferation assay (trypan blue cell counting); format: cell-based, Human; conditions: 72 h, mean±SEM
Experimental: Human fibro blast cell line 3T3 were cultured in high-glucose Dulbecco's modified Eagle's medium (DMEM) containing 10% fetal bovine serum (FBS), 4 mM L-glutamine, 2 mM sodium pyruvate and 1% penicillin/streptomycin (Invitrogen GibcoBRL, Carlsbad, Calif., USA) at 37° C. under 5% CO2. For cell proliferation assay, 3T3 cells were plated at 1×10^5 per well (6-well plate). 24 h after plating, cells were treated with indicated concentration of adenine for 72 h and the number of viable cells was counted. Cells were detached using trypsin-EDTA solution and stained with trypan blue. The living cells were counted using hemocytometer. […] Data are presented as the mean±SEM of three independent experiments.

LC3 = assay: Autophagy assay in Neuro2A cells (LC3-II/LC3-I western blot); format: cell-based, mouse; conditions: 24 h
Experimental: Amyloid β peptide and autophagy assay Effects of adenine on Amyloid β peptide were analyzed in mouse neuroblastoma cell Neuro2A. Neuro2A cells were cultured in high-glucose Dulbecco's modified Eagle's medium (DMEM) containing 10% fetal bovine serum (FBS), 4 mM L-glutamine, 2 mM sodium pyruvate and 1% penicillin/streptomycin (Invitrogen GibcoBRL, Carlsbad, Calif., USA) at 37° C. under 5% CO2. Cells were plated at 3×10^5 per well (6-well plate). 24 h after plating, cells were transfected with human APP695 and treated with indicated concentration of adenine for 24 h followed by cell lysis and western blot analysis. Equal amounts of protein were separated by SDS-PAGE and then electroblotted on to PVDF membranes. Membranes were blocked with 3% BSA in PBS for 60 min and incubated with an anti-Aβ antibody (1:1,000, abcam), an anti-LC3 antibody (1:1,000, Cell signaling), and an anti-actin antibody (1:5,000, Cell signaling) at 4° C. overnight followed by the corresponding secondary antibody for 1 h at room temperature (RT). Immunoreactive bands were detected by enhanced chemiluminescence (ECL; Pierce, Rockford, Ill., USA) and recorded using Kodakfilm (Rochester, N.Y., USA). The detected signals were scanned and then quantified by using TotalLab Quant software (TotalLab).
Because the conversion of LC3-I to LC3-II is indicative of autophagy activity, the higher LC3-II/LC3-I ratio in adenine treated cells reflects the ability of adenine to induce autophagy activity.

Aβ infusion mice = assay: Aβ-induced Alzheimer's disease model mice, Morris water maze; format: in vivo, C57BL/6J mice; conditions: daily IP 0.01, 0.1, 5 or 30 mg/kg for 4 weeks
Experimental: Aβ25-35 was purchased from Sigma-Aldrich (St. Louis, Mo.). The peptides were dissolved in distilled saline and aggregated by incubation at 37° C. for 7 days before injection. C57BL/6J mice were maintained at 22° C. under a 12-h light/dark cycle. Adult mice were anesthetized by ketamine (500 mg/kg) and xylazine (100 mg/kg) and placed in a stereotaxic frame (Stoelting, Wood Dale, Ill., USA). 5 nmol of the aggregated A1325-35 were injected into the lateral ventricle using a 10-μ1 Hamilton syringe (Hamilton Company, Reno, Nev., USA). The target anterior-posterior (AP), medial-lateral (ML) and dorsoventral coordinates were −0.5 mm, ±1 mm and −2.5 mm relative to the bregma. To evaluate the effect of adenine on neurodegenerative disease, Aβ infusion mice were daily intraperitoneally injected with 0.01, 0.1, 5 or 30 mg/kg bodyweight of adenine or vehicle for 4 weeks. The cognitive functions of these mice were analyzed by using Morris water maze assay after 4 weeks injection. The water maze was performed in a circular pool filled with water and a platform was submerged below the water's surface in the target quadrant for hidden platform test. […] Mice were allowed to swim in the maze for 60 s and recorded by a video camera. The latency to find the platform and swim paths were analyzed by EthoVision software (Version 3.1, Noldus, The Netherlands).

IL-1β = assay: LPS-induced inflammatory response in THP1 macrophage, secreted IL-1β (ELISA); format: cell-based, human; conditions: THP1 macrophages, 50 ng LPS 6 hr
Experimental: (§1) Effects of adenine on inflammatory response were evaluated in human THP1 macrophage by examining protein level of intracellular COX-2 and secreted TNFα, IL-1β and IL-6. Differentiation of THP1 monocytes into macrophages was induced by 50 nM PMA for 24 hr. THP1 macrophages were further stimulated by 50 ng LPS for 6 hr in the presence of 10-600 μM of adenine or vehicle followed by cell lysis and western blot analysis. Equal amounts of protein were separated by SDS-PAGE and then electroblotted on to PVDF membranes. Membranes were blocked with 3% BSA in PBS for 60 min and incubated with an anti-COX-2 antibody (1:1,000, Cell signaling), an anti-actin antibody (1:5,000, Cell signaling) at 4° C. overnight followed by the corresponding secondary antibody for 1 h at room temperature (RT). Immunoreactive bands were detected by enhanced chemiluminescence (ECL; Pierce, Rockford, Ill., USA) and recorded using Kodak film (Rochester, N.Y., USA). The detected signals were scanned and then quantified using TotalLab Quant software (TotalLab). The secreted TNFα, IL-1β and IL-6 were analyzed by enzyme-linked immunosorbent assays.

TNFα = assay: LPS-induced inflammatory response in THP1 macrophage, secreted TNFα (ELISA); format: cell-based, human; conditions: THP1 macrophages, 50 ng LPS 6 hr
Experimental: as §1

[1] = system: 6-mm full-thickness excisional skin wounds; assay: Excisional skin wound healing and scar formation in mice; format: in vivo, C57BL/6J mice
Experimental: C57BL/6J mice were maintained at 22° C. under a 12-h light/dark cycle. The experiments were performed with 12-weeks old mice. After anesthetized by an intraperitoneal injection of ketamine (500 mg/kg) and xylazine (100 mg/kg), 6-mm full-thickness excisional skin wounds was made on the backs of mice using 6-mm skin biopsy punches. Immediately after wounding, 10-1200 M of adenine in 25 l saline or saline alone was applied to the wound bed. The skin wounds were then covered by semipermeable transparent dressing and fixed to the skin. The mice were treated with adenine or vehicle for 14 days and then sacrificed. The scar formation is assessed by Masson's trichrome staining to observe the fibrosis process and the collagen framework of the healed wound (Fixed by 4% paraformaldehyde).

SMILES: Nc1ncnc2nc[nH]c12 [Adenine, adenine]
- lower body weight compare to the control group (high-fat diet-fed mice): more than 15%
- lower plasma glucose compare to the control group (high-fat diet-fed mice; plasma 1 hr after last dosing): > 30%
- lower plasma triacylglycerides compare to the control group (high-fat diet-fed mice; plasma 1 hr after last dosing): more than 35%
- lower plasma glucose compare to the control group (high-fat diet-fed mice; plasma 1 hr after last dosing, listed as adenine): more than 30%
- Cell number (% to control) (3T3 cells; adenine 10 microM): 91 ± 2.7 % to control
- Cell number (% to control) (3T3 cells; adenine 50 microM): 73 ± 8.1 % to control
- Cell number (% to control) (3T3 cells; adenine 100 microM): 64 ± 5.3 % to control
- Cell number (% to control) (3T3 cells; adenine 200 microM): 48 ± 2.8 % to control
- Cell number (% to control) (3T3 cells; adenine 500 microM): 33 ± 6.4 % to control
- Cell number (% to control) (3T3 cells; adenine 1000 microM): 27 ± 11.3 % to control
- LC3-II/LC3-Iratio (relative to control) (LC3; adenine 10 microM): 1.2 ± 0.1 relative to control
- LC3-II/LC3-Iratio (relative to control) (LC3; adenine 20 microM): 1.8 ± 0.3 relative to control
- LC3-II/LC3-Iratio (relative to control) (LC3; adenine 30 microM): 2.8 ± 0.2 relative to control
- LC3-II/LC3-Iratio (relative to control) (LC3; adenine 40 microM): 2.9 ± 0.2 relative to control
- LC3-II/LC3-Iratio (relative to control) (LC3; adenine 50 microM): 3.2 ± 0.3 relative to control
- percentage time in target quadrant, probe assay (Aβ infusion mice): higher percentage time in target quadrant
- time to find platform, hidden platform test (Aβ infusion mice; dose-dependent): significantly shorter time to find platform
- IL-1β•(% to control) (IL-1β; adenine 10 microM): 91 ± 8.4 % to control
- IL-1β•(% to control) (IL-1β; adenine 100 microM): 29 ± 5.5 % to control
- IL-1β•(% to control) (IL-1β; adenine 600 microM): 17 ± 3.7 % to control
- TNF•(% to control) (TNFα; adenine 10 microM): 85 ± 9.1 % to control
- TNF•(% to control) (TNFα; adenine 100 microM): 41 ± 2.6 % to control
- TNF•(% to control) (TNFα; adenine 600 microM): 23 ± 1.8 % to control
- scar width ([1]; topical adenine, 14 days post-wounding, vs vehicle treated wounds): significantly decreased the scar width
- extent of wound closure ([1]; topical, 10-1200 µM of adenine in 25 µl saline, 14 days of treatment, dose-dependent, vs control mice): significantly greater
